Results taken from US11584755B2 (IDEAYA BIOSCIENCES, INC., priority 2017, dated 2023).

Tests used:
Assay type in all cases: biochemical
[1] = molecular target: hFEN1 (Homo sapiens (Human), UniProt P39748); assay: Enzymatic IC50 assay, FAM-labeled DNA oligomer substrate, fluorescence intensity (FEN1); conditions: hFEN1 70 pM, substrate 100 nM, reaction time 20 minutes, 23° C.
Method in brief: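 FEN1, EXO1 or XPG was preincubated 15 min with compound, then the FAM-labelled DNA oligomer substrate was added in Tris-HCl pH 8.0 with 10 mM MgCl2 at 23° C. FEN1 was 70 pM with 100 nM substrate for 20 min, EXO1 6 nM with 30 nM for 60 min, and XPG 100 nM with 100 nM for 120 min. Reactions were EDTA-stopped and read by fluorescence intensity.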

[2] = molecular target: hXPG (Homo sapiens (Human), UniProt P28715); assay: Enzymatic IC50 assay, FAM-labeled DNA oligomer substrate, fluorescence intensity (XPG); conditions: hXPG 100 nM, substrate 100 nM, reaction time 120 minutes, 23° C.
Chain of hXPG (P28715 whole entry): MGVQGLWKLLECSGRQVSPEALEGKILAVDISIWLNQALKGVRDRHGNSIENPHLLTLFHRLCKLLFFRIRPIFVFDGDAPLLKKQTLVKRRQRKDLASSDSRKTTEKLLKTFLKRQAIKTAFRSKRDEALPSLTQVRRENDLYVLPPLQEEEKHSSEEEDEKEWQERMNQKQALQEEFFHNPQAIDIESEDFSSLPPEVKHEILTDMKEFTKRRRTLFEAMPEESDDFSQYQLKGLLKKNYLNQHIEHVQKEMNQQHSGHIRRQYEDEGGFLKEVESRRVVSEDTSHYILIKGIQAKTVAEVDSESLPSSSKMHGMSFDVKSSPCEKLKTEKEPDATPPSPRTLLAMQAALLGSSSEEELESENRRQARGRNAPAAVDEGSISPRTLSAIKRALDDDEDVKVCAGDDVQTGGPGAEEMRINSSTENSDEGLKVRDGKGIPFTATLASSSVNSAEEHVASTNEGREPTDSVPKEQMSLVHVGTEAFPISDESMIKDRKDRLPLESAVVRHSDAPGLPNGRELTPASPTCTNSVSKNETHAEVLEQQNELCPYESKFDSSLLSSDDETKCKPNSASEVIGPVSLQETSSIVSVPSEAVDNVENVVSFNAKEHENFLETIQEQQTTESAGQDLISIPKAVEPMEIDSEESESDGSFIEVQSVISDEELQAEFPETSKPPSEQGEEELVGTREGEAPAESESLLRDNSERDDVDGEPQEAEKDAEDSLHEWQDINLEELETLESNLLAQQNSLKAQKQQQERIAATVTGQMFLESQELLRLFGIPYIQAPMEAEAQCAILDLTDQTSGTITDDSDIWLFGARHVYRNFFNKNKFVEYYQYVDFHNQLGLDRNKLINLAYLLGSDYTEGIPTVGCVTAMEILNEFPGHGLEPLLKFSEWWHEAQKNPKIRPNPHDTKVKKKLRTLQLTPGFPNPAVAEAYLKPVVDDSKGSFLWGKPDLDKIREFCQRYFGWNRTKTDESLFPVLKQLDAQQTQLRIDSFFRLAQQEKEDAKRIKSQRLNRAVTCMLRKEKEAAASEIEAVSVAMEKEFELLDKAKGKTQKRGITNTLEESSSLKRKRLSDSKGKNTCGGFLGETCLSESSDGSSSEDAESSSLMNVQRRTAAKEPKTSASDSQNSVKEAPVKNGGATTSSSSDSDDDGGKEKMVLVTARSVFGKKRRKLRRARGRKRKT
Method: (§1) FEN1, EXO1 or XPG enzyme was incubated with compound or vehicle (DMSO) and the FAM-labeled DNA oligomer substrate in a microtiter plate. The stop buffer contains EDTA to stop the enzymatic reaction. The plate is read for fluorescence intensity. The high control (DMSO) with high fluorescence intensity represents no inhibition of enzymatic reaction while the low control (10 μM) with low fluorescence intensity represents full inhibition of enzymatic reaction.
(§2) • FEN1 • hFEN1: 70 pM • Substrate: 100 nM • Reaction time: 20 minutes • EXO1 • hEXO1: 6 nM, Isoforml • Substrate: 30 nM • Reaction time: 60 minutes • XPG • hXPG: 100 nM • Substrate: 100 nM • Reaction time: 120 minutes
(§3) Annealing Buffer: 50 mM Tris-HCl, 50 mM NaCl, 1 mM DTT Assay buffer: 50 mM Tris-HCl pH 8.0, 10 mM MgCl2, 0.01% BSA, 1 mM DTT Stop buffer: 50 mM EDTA in assay buffer Temperature: 23° C. Total volume: 40 μl Controls: • 0% inhibition control: DMSO • 100% inhibition control: 10 μM (final) 5-chloro-3-hydroxy-1,3-dihydroquinazoline-2,4-dione Enzyme Reaction and Detection: • 1. Prepare 25 μM intermediate stock of the substrate by diluting SEQ ID NO:1, SEQ ID NO:2, and SEQ ID NO:3 in annealing buffer, in a PCR tube. • 2. Place the PCR tube on a heat block, heat at 95° C. for 3 minutes, then drop in 0.2° C. increments over 2 minutes, stopping at 25° C. • 3. Remove the tube and let the tube cool at room temperature. • 4. Transfer 10 μL of 3× final concentration test compounds or DMSO to the appropriate wells of a microtiter plate. • 5. Transfer 10 μL of 3× final concentration enzyme in assay buffer or assay buffer alone to the appropriate wells. • 6. Incubate the plate at room temperature for 15 minutes. • 7. Transfer 10 μL of 3× substrate in assay buffer to all the test wells. • 8. Incubate the plate at room temperature for prescribed reaction time. • 9. Centrifuge the plate at 1000 rpm for 1 minute. • 10. Transfer 10 μL of stop buffer to all the test wells. • 11. Centrifuge the plate at 1000 rpm for 1 minute. • 12. Read the plate on a plate reader.

[3] = molecular target: hEXO1, Isoform1 (Homo sapiens (Human), UniProt Q9UQ84); assay: Enzymatic IC50 assay, FAM-labeled DNA oligomer substrate, fluorescence intensity (EXO1); conditions: hEXO1 6 nM, substrate 30 nM, reaction time 60 minutes, 23° C.
Chain of hEXO1, Isoform1 (Q9UQ84 whole entry, canonical isoform): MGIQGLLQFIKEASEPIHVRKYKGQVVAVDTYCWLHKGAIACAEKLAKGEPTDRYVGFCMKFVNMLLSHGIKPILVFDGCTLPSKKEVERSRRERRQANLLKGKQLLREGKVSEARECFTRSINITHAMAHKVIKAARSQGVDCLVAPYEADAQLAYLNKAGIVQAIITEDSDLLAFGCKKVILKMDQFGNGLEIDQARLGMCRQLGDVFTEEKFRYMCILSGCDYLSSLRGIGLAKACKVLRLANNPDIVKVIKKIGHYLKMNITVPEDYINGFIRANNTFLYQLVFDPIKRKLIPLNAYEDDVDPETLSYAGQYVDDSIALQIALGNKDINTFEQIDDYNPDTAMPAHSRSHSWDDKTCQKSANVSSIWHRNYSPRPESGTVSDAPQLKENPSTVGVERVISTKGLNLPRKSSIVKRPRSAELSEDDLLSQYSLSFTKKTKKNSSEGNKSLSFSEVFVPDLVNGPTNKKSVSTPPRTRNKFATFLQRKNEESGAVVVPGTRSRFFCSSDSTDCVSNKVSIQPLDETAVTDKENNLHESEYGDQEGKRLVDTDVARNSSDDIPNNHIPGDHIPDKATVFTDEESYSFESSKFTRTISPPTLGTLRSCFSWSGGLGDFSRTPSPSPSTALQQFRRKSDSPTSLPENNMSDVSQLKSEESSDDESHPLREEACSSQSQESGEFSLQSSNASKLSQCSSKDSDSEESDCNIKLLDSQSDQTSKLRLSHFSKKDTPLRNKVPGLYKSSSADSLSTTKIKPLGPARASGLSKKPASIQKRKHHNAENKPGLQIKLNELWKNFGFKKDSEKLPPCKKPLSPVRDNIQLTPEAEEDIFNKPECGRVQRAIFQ
Method: as §1, §2, §3

Chain of hFEN1 (P39748 whole entry): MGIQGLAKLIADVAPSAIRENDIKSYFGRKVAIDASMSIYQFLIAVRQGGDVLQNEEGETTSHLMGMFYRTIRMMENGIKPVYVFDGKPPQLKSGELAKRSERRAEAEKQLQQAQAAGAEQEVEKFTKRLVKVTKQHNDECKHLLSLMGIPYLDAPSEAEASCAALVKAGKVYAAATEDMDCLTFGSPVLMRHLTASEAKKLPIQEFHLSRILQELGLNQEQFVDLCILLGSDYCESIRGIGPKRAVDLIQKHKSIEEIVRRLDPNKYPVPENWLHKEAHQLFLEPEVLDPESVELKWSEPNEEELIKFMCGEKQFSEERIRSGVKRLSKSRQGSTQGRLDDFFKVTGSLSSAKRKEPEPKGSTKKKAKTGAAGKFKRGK

IC50 [1] | IC50 [2] | IC50 [3] | SMILES
250 to 750 nM | 2250 to 10000 nM | 2250 to 10000 nM | O=C(O)c1c(O)c(=O)n(Cc2cccc(Br)c2)c2ccsc12 [Example 1, 4-(3-bromobenzyl)-6-hydroxy-5-oxo-4,5-dihydrothieno[3,2-b]pyridine-7-carboxylic acid]
250 to 750 nM | 2250 to 10000 nM | 2250 to 10000 nM | CC(=O)Nc1cccc(-c2cccc(Cn3c(=O)c(O)c(C(=O)O)c4sccc43)c2)c1 [Example 2, 4-((3′-acetamido-[1,1′-biphenyl]-3-yl)methyl)-6-hydroxy-5-oxo-4,5-dihydrothieno[3,2-b]pyridine-7-carboxylic acid]
750 to 2250 nM | 2250 to 10000 nM | 2250 to 10000 nM | O=C(O)c1c(O)c(=O)n(Cc2ccccc2)c2ccsc12 [Example 3, 4-benzyl-6-hydroxy-5-oxo-4,5-dihydrothieno[3,2-b]pyridine-7-carboxylic acid]
250 to 750 nM | 2250 to 10000 nM | 2250 to 10000 nM | O=C(O)c1c(O)c(=O)n(Cc2ccc(Br)cc2)c2ccsc12 [Example 5, 4-(4-bromobenzyl)-6-hydroxy-5-oxo-4,5-dihydrothieno[3,2-b]pyridine-7-carboxylic acid]
< 200 nM | 2250 to 10000 nM | 750 to 2250 nM | CC(=O)Nc1cccc(Cn2c(=O)c(O)c(C(=O)O)c3sccc32)c1 [Example 7, 4-[(3-acetamidophenyl)methyl]-6-hydroxy-5-oxo-thieno[3,2-b]pyridine-7-carboxylic acid]
< 200 nM | 2250 to 10000 nM | 2250 to 10000 nM | COc1ccc(Cn2c(=O)c(O)c(C(=O)O)c3sccc32)cc1 [Example 12, 6-hydroxy-4-[(4-methoxyphenyl)methyl]-5-oxo-thieno[3,2-b]pyridine-7-carboxylic acid]
< 200 nM | 2250 to 10000 nM | 250 to 750 nM | CS(=O)(=O)Nc1ccc(Cn2c(=O)c(O)c(C(=O)O)c3sccc32)cc1 [Example 16, 6-hydroxy-4-[[4-(methanesulfonamido)phenyl]methyl]-5-oxo-thieno[3,2-b]pyridine-7-carboxylic acid]
250 to 750 nM | 750 to 2250 nM | 250 to 750 nM | O=C(O)c1c(O)c(=O)n(Cc2cn(-c3ccccc3)nn2)c2ccsc12 [Example 18, 6-hydroxy-5-oxo-4-((1-phenyl-1H-1,2,3-triazol-4-yl)methyl)-4,5-dihydrothieno[3,2-b]pyridine-7-carboxylic acid]
< 200 nM | 250 to 750 nM | 250 to 750 nM | CC(=O)Nc1ccc(-n2cc(Cn3c(=O)c(O)c(C(=O)O)c4sccc43)cn2)cc1 [Example 22, 4-{[1-(4-acetamidophenyl)-1H-pyrazol-4-yl]methyl}-6-hydroxy-5-oxo-4,5-dihydrothieno[3,2-b]pyridine-7-carboxylic acid]
< 200 nM | < 200 nM | 750 to 2250 nM | O=C(O)c1c(O)c(=O)n(Cc2cnn3ccccc23)c2ccsc12 [Example 24, 6-hydroxy-5-oxo-4-(pyrazolo[1,5-a]pyridin-3-ylmethyl)-4,5-dihydrothieno[3,2-b]pyridine-7-carboxylic acid]
 | 2250 to 10000 nM | 2250 to 10000 nM | COc1ccc(Cn2c(=O)c(O)c(C(=O)O)c3sccc32)cn1 [Example 98, 6-hydroxy-4-[(6-methoxypyridin-3-yl)methyl]-5-oxo-4,5-dihydrothieno[3,2-b]pyridine-7-carboxylic acid]
 | 2250 to 10000 nM | 750 to 2250 nM | O=C(O)c1c(O)c(=O)n(Cc2cnc3ccccn23)c2ccsc12 [Example 100, 6-hydroxy-4-(imidazo[1,2-a]pyridin-3-ylmethyl)-5-oxo-4,5-dihydrothieno[3,2-b]pyridine-7-carboxylic acid]
 | 2250 to 10000 nM | 2250 to 10000 nM | COc1ccc(Cn2cc(Cn3c(=O)c(O)c(C(=O)O)c4sccc43)cn2)cc1 [Example 126, 6-hydroxy-4-{[1-(4-methoxybenzyl)-1H-pyrazol-4-yl]methyl}-5-oxo-4,5-dihydrothieno[3,2-b]pyridine-7-carboxylic acid]
< 200 nM | 2250 to 10000 nM |  | O=C(O)c1c(O)c(=O)n(Cc2cnn(Cc3ncc4ccccn34)c2)c2ccsc12 [Example 142]
250 to 750 nM |  | 750 to 2250 nM | COc1ccc(-n2cc(Cn3c(=O)c(O)c(C(=O)O)c4sccc43)c(Br)n2)cc1 [Example 161, 4-{[3-bromo-1-(4-methoxyphenyl)-1H-pyrazol-4-yl]methyl}-6-hydroxy-5-oxo-4,5-dihydrothieno[3,2-b]pyridine-7-carboxylic acid]
750 to 2250 nM |  | 2250 to 10000 nM | Cc1nn(C)cc1Cn1c(=O)c(O)c(C(=O)O)c2sccc21 [Example 162, 4-[(1,3-dimethyl-1H-pyrazol-4-yl)methyl]-6-hydroxy-5-oxo-4,5-dihydrothieno[3,2-b]pyridine-7-carboxylic acid]
< 200 nM |  | 2250 to 10000 nM | O=C(O)Cn1cc(Cn2c(=O)c(O)c(C(=O)O)c3sccc32)cn1 [Example 163, 4-{[1-(carboxymethyl)-1H-pyrazol-4-yl]methyl}-6-hydroxy-5-oxo-4,5-dihydrothieno[3,2-b]pyridine-7-carboxylic acid]
250 to 750 nM |  | 250 to 750 nM | O=C(O)c1c(O)c(=O)n(Cc2cnc3c(Br)cccn23)c2ccsc12 [Example 164, 4-[(8-bromoimidazo[1,2-a]pyridin-3-yl)methyl]-6-hydroxy-5-oxo-4,5-dihydrothieno[3,2-b]pyridine-7-carboxylic acid]
750 to 2250 nM |  | 750 to 2250 nM | COc1cc(-c2cccn3c(Cn4c(=O)c(O)c(C(=O)O)c5sccc54)cnc23)ccn1 [Example 165, 6-hydroxy-4-{[8-(2-methoxypyridin-4-yl)imidazo[1,2-a]pyridin-3-yl]methyl}-5-oxo-4,5-dihydrothieno[3,2-b]pyridine-7-carboxylic acid]
250 to 750 nM |  | 250 to 750 nM | CS(=O)(=O)c1ccc(-c2ncc(Cn3c(=O)c(O)c(C(=O)O)c4sccc43)s2)cc1 [Example 166, 6-hydroxy-4-({2-[4-(methylsulfonyl)phenyl)thiazol-5-yl)methyl)-5-oxo-4,5-dihydrothieno[3,2-b]pyridine-7-carboxylic acid]
< 200 nM |  | 750 to 2250 nM | CS(=O)(=O)Nc1ccc(-c2ncc(Cn3c(=O)c(O)c(C(=O)O)c4sccc43)s2)cc1 [Example 167, 6-hydroxy-4-({2-[4-(methylsulfonamido)phenyl]thiazol-5-yl}methyl)-5-oxo-4,5-dihydrothieno[3,2-b]pyridine-7-carboxylic acid]
2250 to 10000 nM |  | 2250 to 10000 nM | O=C(O)c1c(O)c(=O)n(Cc2cnc(-c3cccc4cnccc34)s2)c2ccsc12 [Example 168, 6-hydroxy-4-{[2-(isoquinolin-5-yl)thiazol-5-yl]methyl}-5-oxo-4,5-dihydrothieno[3,2-b]pyridine-7-carboxylic acid]
2250 to 10000 nM |  | 750 to 2250 nM | O=C(O)c1c(O)c(=O)n(Cc2cnc(-c3cccc4ncccc34)s2)c2ccsc12 [Example 169, 6-hydroxy-5-oxo-4-{[2-(quinolin-5-yl)thiazol-5-yl]methyl}-4,5-dihydrothieno[3,2-b]pyridine-7-carboxylic acid]
750 to 2250 nM |  | 750 to 2250 nM | O=C(O)c1c(O)c(=O)n(Cc2cnc(-c3ccnc4ccccc34)s2)c2ccsc12 [Example 170, 6-hydroxy-5-oxo-4-{[2-(quinolin-4-yl)thiazol-5-yl]methyl}-4,5-dihydrothieno[3,2-b]pyridine-7-carboxylic acid]
